Measured values taken from patent US9346782B2, “Alkyl linked quinolinyl modulators of RORγt” (Janssen Pharmaceutica NV, priority 2013, dated 2016).

Columns and labels:
human RORγt LBD = human RORγt LBD (Homo sapiens (Human), UniProt P51449); assay: RORγt Reporter Assay; format: cell-based; conditions: for IC50 / RORγt reporter Assay, % inhibition @ 6 μM: HEK293T cells; for inhibition at 6 µM: HEK-293T, read-out: RORγt reporter Assay, % inhibition @ 6 μM, HEK293T cells, 6 μM
Description: A reporter assay was used to test functional activity of RORγt modulatory compounds on transcriptional activation driven by the RORγt LBD. Cells used in the assay were co-transfected with two constructs. The first construct, pBIND-RORγt LBD, contained the wild type human RORγt LBD fused to the DNA binding domain of the GAL4 protein. The second construct, pGL4.31 (Promega Cat no. C935A), contained multiple GAL4 responsive DNA elements upstream of firefly luciferase. […] The mutant construct was called pBIND-RORγt-AF2.
The pBIND vector contains the GAL4 DNA Binding Domain (GAL4 DBD) and the renilla luciferase gene under control of the SV40 promoter. Renilla luciferase expression serves as a control for transfection efficiency and cell viability.
The reporter assay was performed by transiently transfecting HEK293T cells with 5 μg of pBIND-RORγt LBD or pBIND-RORγt LBD-AF2 and 5 μg pGL4.31 (Promega Cat no. C935A) using Fugene 6 (Invitrogen Cat no. E2691) at a 1:6 ratio of DNA:Fugene 6 in a T-75 flask in which cells were at least 80% confluent. Twenty four hours after bulk transfection, cells were plated into 96-well plates at 50,000 cells/well in phenol-red free DMEM containing 5% Lipid Reduced FCS and Pen/Strep. Six hours after plating, cells were treated with compounds for 24 hours. Media was removed and cells were lysed with 50 μL 1× Glo Lysis Buffer (Promega). Dual Glo Luciferase Reagent (50 μL/well) was then added and firefly luciferase luminescence was read on an Envision after a ten minute incubation. Finally, Stop and Glo reagent (50 μL/well) was added and renilla luciferase luminescence was read on an Envision after a ten minute incubation. To calculate the effect of compounds on RORγt activity, the ratio of firefly to renilla luciferase was determined and plotted against compound concentration. Agonist compounds increase RORγt-driven luciferase expression, and antagonist or inverse agonist compounds decrease luciferase expression.

[1] = test system: IL-17 production by CD4 T cells; assay: Human Th17 Assay; format: cell-based; conditions: 3 days
Description: The human Th17 assay tests the effect of RORγt modulatory compounds on IL-17 production by CD4 T cells under conditions which favor Th17 differentiation. Total CD4^+ T cells were isolated from the peripheral blood mononuclear cells (PBMC) of healthy donors using a CD4^+ T cell isolation kit II, following the manufacturer's instructions (Miltenyi Biotec). Cells were resuspended in a medium of RPMI-1640 supplemented with 10% fetal bovine serum, penicillin, streptomycin, glutamate, and β-mercaptoethanol and were added to 96-well plates at 1.5×10^5 per 100 μL per well. 50 μL of compound at titrated concentrations in DMSO were added into each well at final DMSO concentration at 0.2%. Cells were incubated for 1 hour, then 50 μL of Th17 cell differentiation medium was added to each well. The final concentrations of antibodies and cytokines (R&D Systems) in differentiation medium were: 3×10^6/mL anti-CD3/CD28 beads (prepared using human T cell activation/expansion kit, Miltenyi Biotec), 10 μg/mL anti-IL4, 10 μg/mL anti-IFNγ, 10 ng/mL IL1β, 10 ng/mL IL23, 50 ng/mL IL6, 3 ng/mL TGFβ and 20 U/mL IL2. Cells were cultured at 37° C. and 5% CO2 for 3 days. Supernatants were collected and the accumulated IL-17 in culture was measured by using MULTI-SPOT® Cytokine Plate following manufacture's instruction (Meso Scale Discovery). The plate was read using Sector Imager 6000, and IL-17 concentration was extrapolated from the standard curve. The IC50s were determined by GraphPad.

Chain of human RORγt LBD (P51449 258-518): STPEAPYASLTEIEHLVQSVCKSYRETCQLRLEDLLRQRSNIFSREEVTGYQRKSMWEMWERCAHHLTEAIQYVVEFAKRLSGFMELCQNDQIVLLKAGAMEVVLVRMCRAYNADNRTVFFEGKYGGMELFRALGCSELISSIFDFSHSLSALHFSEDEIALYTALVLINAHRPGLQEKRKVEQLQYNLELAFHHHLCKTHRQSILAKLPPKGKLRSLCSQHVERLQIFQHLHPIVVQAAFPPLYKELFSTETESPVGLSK

IC50 (human RORγt LBD) [µM]	RORγt reporter Assay, % inhibition @ 6 μM (human RORγt LBD) [%]	IC50 [1] [µM]	SMILES	inhibition at 6 µM (human RORγt LBD) [%]	IC50 ([1]; Homo sapiens, CD4+ T, 72 h) [µM]
0.098	94	–	C#CC(O)(c1ccc2nc(OC)c(Cc3ccc(C(F)(F)F)cc3)c(Cl)c2c1)C1CN(C(C)=O)C1 (single isomer, unassigned) [Example 7c, 1-(3-(1-(4-chloro-2-methoxy-3-(4-(trifluoromethyl)benzyl)quinolin-6-yl)-1-hydroxyprop-2-yn-1-yl)azetidin-1-yl)ethanone]	–	0.32
0.31	94	0.29	C#CC(O)(c1ccc2nc(OC)c(Cc3ccc(C(F)(F)F)cc3)c(Cl)c2c1)c1cnc(C)n1C (single isomer, unassigned) [Example 14c, 1-(4-Chloro-2-methoxy-3-(4-(trifluoromethyl)benzyl)quinolin-6-yl)-1-(1,2-dimethyl-1H-imidazol-5-yl)prop-2-yn-1-ol]	–	–
0.015	99	0.057	COc1nc2ccc(C(C)(O)c3cnnn3C)cc2c(Cl)c1Cc1ccc(C(F)(F)F)cc1 (single isomer, unassigned) [Example 11c, 1-(4-Chloro-2-methoxy-3-(4-(trifluoromethyl)benzyl)quinolin-6-yl)-1-(1-methyl-1H-1,2,3-triazol-5-yl)ethanol]	–	–
0.18	98	–	COc1nc2ccc(C(C)(O)c3cncn3C)cc2c(Cl)c1Cc1ccc(C(F)(F)F)cc1 (single isomer, unassigned) [Example 9c, 1-(4-Chloro-2-methoxy-3-(4-(trifluoromethyl)benzyl)quinolin-6-yl)-1-(1-methyl-1H-imidazol-5-yl)ethanol]	–	0.28
0.041	102	0.08	COc1nc2ccc(C(C)(O)c3cnc(C)n3C)cc2c(Cl)c1Cc1ccc(C(F)(F)F)cc1 (single isomer, unassigned) [Example 12c, 1-(4-Chloro-2-methoxy-3-(4-(trifluoromethyl)benzyl)quinolin-6-yl)-1-(1,2-dimethyl-1H-imidazol-5-yl)ethanol]	–	–
0.21	–	0.87	COc1nc2ccc(C(C)(O)c3cnnn3C)cc2c(Cl)c1Cc1ccc(C(F)(F)F)cc1 (single isomer, unassigned) [Example 11b, 1-(4-Chloro-2-methoxy-3-(4-(trifluoromethyl)benzyl)quinolin-6-yl)-1-(1-methyl-1H-1,2,3-triazol-5-yl)ethanol]	98	–

SMILES	IC50 (human RORγt LBD) [µM]	RORγt reporter Assay, % inhibition @ 6 μM (human RORγt LBD) [%]	IC50 [1] [µM]	inhibition at 6 µM (human RORγt LBD) [%]	IC50 ([1]; Homo sapiens, CD4+ T, 72 h) [µM]
COc1nc2ccc(C(C)(O)c3oc(C)nc3C)cc2c(Cl)c1Cc1ccc(C(F)(F)F)cc1 (single isomer, unassigned) [Example 10c, 1-(4-Chloro-2-methoxy-3-(4-(trifluoromethyl)benzyl)quinolin-6-yl)-1-(2,4-dimethyloxazol-5-yl)ethanol]	0.33	–	–	95	0.55
COc1nc2ccc(C(C)(O)c3oc(C)nc3C)cc2c(Cl)c1Cc1ccc(C(F)(F)F)cc1 (single isomer, unassigned) [Example 10b, 1-(4-Chloro-2-methoxy-3-(4-(trifluoromethyl)benzyl)quinolin-6-yl)-1-(2,4-dimethyloxazol-5-yl)ethanol]	0.26	96	–	–	0.64
